Measured values reported in ChEMBL document CHEMBL3397014, “The short way to chiral compounds with hexahydrofluoreno[9,1-bc]furan framework: synthesis and cytotoxic activity” (2015).

Key:
MT4 [1] = test: Induction of apoptosis in human MT4 cells at 0.9 uM after 48 hrs by propidium iodide staining based FACS flow cytometry (reference value: 3.5%); assay type: functional
MT4 [2] = test: Cytotoxic activity against human MT4 cells assessed as reduction in cell viability after 72 hrs by MTT assay; assay type: functional
MT4 [3] = test: Induction of apoptosis in human MT4 cells at 0.9 uM after 72 hrs by propidium iodide staining based FACS flow cytometry (reference value: 5.5%); assay type: functional
MT4 [4] = test: Induction of apoptosis in human MT4 cells at 0.9 uM after 24 hrs by propidium iodide staining based FACS flow cytometry (reference value: 2.3%); assay type: functional
[5] = Cytotoxic activity against human U937 cells assessed as reduction in cell viability after 72 hrs by MTT assay; assay type: functional, U-937
[6] = Cytotoxic activity against human CEM13 cells assessed as reduction in cell viability after 72 hrs by MTT assay; assay type: functional

Row | Structure (SMILES) | Activity (MT4 [1]) | CTD50 (MT4 [2]) | Activity (MT4 [3]) | Activity (MT4 [4]) | CTD50 [5] | CTD50 [6]
1 | COc1cc2c(cc1O)[C@@H]1OC[C@@H]3CC(C(C)C)=CC2[C@@]31C (some centres undefined) | 16.3% | 0.93 µM | 27.7% | 12.8% | 50 µM | 93.3 µM
2 | COc1cc2c(cc1O)C1C=C(C(C)C)C[C@H]3CO[C@@H]2[C@@]13C (some centres undefined) | – | 150 µM | – | – | 210 µM | 136.7 µM
3 | COc1cc2c(c(OC)c1O)C1C=C(C(C)C)C[C@H]3CO[C@@H]2[C@@]13C (some centres undefined) | – | 224.2 µM | – | – | 136.4 µM | 157.6 µM
4 | COc1cc2c(c(OC)c1OC)C1C=C(C(C)C)C[C@H]3CO[C@@H]2[C@@]13C (some centres undefined) | – | 200.6 µM | – | – | 66.9 µM | 49.4 µM
5 | COc1cc(OC)c2c(c1OC)C1C=C(C(C)C)C[C@H]3CO[C@@H]2[C@@]13C (some centres undefined) | – | >250 µM | – | – | 116.3 µM | 81.4 µM
6 | CC(C)C1=CC2Oc3cc(O)ccc3[C@@H]3OC[C@H](C1)[C@]23C (some centres undefined) | – | 150.3 µM | – | – | 164.3 µM | 111.9 µM
7 | COc1cccc2c1C(=O)c1c(O)c3c(c(O)c1C2=O)C[C@@](O)(C(=O)CO)C[C@@H]3O[C@H]1C[C@H](N)[C@H](O)[C@H](C)O1 [DOXORUBICIN] | – | 2.76 µM | – | – | 0.17 µM | 3.44 µM
